Data published in patent US9409952B2, “Peptide-compound cyclization method” (Chugai Seiyaku Kabushiki Kaisha, priority 2011, dated 2016).
Like-named read-outs stand apart in the source and are kept apart here. Starred links: 1 amine or outer side, 2 acyl side, 3 side chain; linkers in the order of their positions; H or OH if unused. Positions of bridges follow the written chain, without caps; N, C: chain ends. Non-standard residues stand in square brackets, D forms with d. Residues, ends and D or L forms follow the SMILES beside them. ξ: configuration not given here. *: point of attachment. NMeF = CN[C@@H](Cc1ccccc1)C(=O)O; NMeI = CC[C@H](C)[C@H](NC)C(=O)O; NMeβAla = CN(CCC(=O)[*:2])[*:1]; NMeξIle = CC[C@H](C)C(NC)C(=O)O; NMeL = CN[C@@H](CC(C)C)C(=O)O; NMeV = CN[C@H](C(=O)O)C(C)C; NMeA = CN[C@@H](C)C(=O)O; Piperidide = C1CCN(*)CC1; dNMeA = CN[C@H](C)C(=O)O; ξL = CC(C)CC(N)C(=O)O; Sar = CNCC(=O)O; tBu = CC(C)(C)*

Tests used:
[1] = PAMPA (parallel artificial membrane permeability assay); type: in vitro ADME; details: PAMPA
Method in brief: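 Artificial membrane was 10% (w/v) egg lecithin plus 0.5% (w/v) cholesterol in dodecane on a PVDF filter. A 10 mM DMSO stock was added at 0.5% (v/v) to donor buffer (50 mM MOPSO, pH 6.5, 5.0% glycocholic acid). After 18 h at 37 °C, LC/MS or LC/UV gave donor and acceptor levels for Pe.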

[2] = Metabolic stability in human hepatic microsome; type: in vitro ADME; details: human
[3] = microsomes, pH 7.4, CL NADPH(+)
[4] = membrane permeation rate (Pe), 50 mM MOPSO buffer pH 6.5 with 5.0% glycocholic acid, 37° C., 18 hours, read-out: iPAMPA Pe
[5] = human hepatic microsomes, pH 7.4, human hepatic microsome, NADPH(+), read-out: CL NADPH(+)

Compound	Papp at 18 hours, 50 µM ([1]; pH 6.5) [×10⁻⁶ cm/s]	microsomal CLint at 1 uM [2, 3] [µL/min/mg]	Papp at 18 hours, 50 µM [1, 4] [×10⁻⁶ cm/s]	microsomal CLint at 1 uM [2, 5] [µL/min/mg]
CC[C@H](C)[C@H]1C(=O)N[C@@H](CC(C)C)C(=O)N2CCC[C@H]2C(=O)N[C@@H]([C@@H](C)O)C(=O)N(C)[C@@H](C)C(=O)N[C@@H](Cc2ccccc2)C(=O)N[C@H](C(=O)N2CCCCC2)CC(=O)N(C)[C@@H](C)C(=O)N[C@@H](Cc2ccccc2)C(=O)N(C)[C@@H](CC(C)C)C(=O)N[C@@H](COC(C)(C)C)C(=O)NCC(=O)N1C [DP-57] ([NMeA]F[NMeL]S(tBu)G[NMeI]LPT[NMeA]FD-Piperidide; lactam N-12)	26	23		
CC[C@H](C)[C@H]1C(=O)N[C@@H](C)C(=O)N[C@H](C(=O)N2CCCCC2)CC(=O)N(C)[C@@H](C)C(=O)N[C@@H]([C@@H](C)O)C(=O)N(C)[C@@H](Cc2ccccc2)C(=O)N[C@@H](CC(C)C)C(=O)N2CCC[C@H]2C(=O)N(C)[C@@H](C(C)C)C(=O)N[C@@H](Cc2ccccc2)C(=O)N(C)CC(=O)N(C)[C@@H](CC(C)C)C(=O)N1C [DP-58] ([NMeA]T[NMeF]LP[NMeV]F[Sar][NMeL][NMeI]AD-Piperidide; lactam N-12)			20	27
CC[C@H](C)[C@H]1C(=O)NCC(=O)N(C)[C@@H](Cc2ccccc2)C(=O)N[C@@H]([C@@H](C)O)C(=O)N(C)[C@@H](C)C(=O)N[C@@H](CC(C)C)C(=O)N[C@H](C(=O)N2CCCCC2)CC(=O)N(C)CCC(=O)N(C)[C@@H](C)C(=O)N[C@@H](Cc2ccccc2)C(=O)N[C@@H](C(C)C)C(=O)N(C)[C@@H](CC(C)C)C(=O)N1C [DP-59] ([NMeβAla][NMeA]FV[NMeL][NMeI]G[NMeF]T[NMeA]LD-Piperidide; lactam N-12)	21	65		
CC[C@H](C)C1C(=O)N[C@H](C(=O)N2CCCCC2)CC(=O)N(C)CC(=O)N(C)CC(=O)N[C@@H]([C@@H](C)O)C(=O)N(C)[C@@H](Cc2ccccc2)C(=O)N(C)[C@@H](CC(C)C)C(=O)N[C@@H](COC(C)(C)C)C(=O)N(C)[C@@H](CC(C)C)C(=O)N1C (stereo partly drawn) [DP-60] ([Sar][Sar]T[NMeF][NMeL]S(tBu)[NMeL][NMeξIle]D-Piperidide; lactam N-9)	42	145		
CC[C@H](C)[C@H]1C(=O)N(C)[C@@H](Cc2ccccc2)C(=O)N[C@H](C(=O)N2CCCCC2)CC(=O)N(C)CCC(=O)NC(CC(C)C)C(=O)N(C)[C@@H](Cc2ccccc2)C(=O)N(C)[C@@H](CC(C)C)C(=O)N(C)[C@@H](C(C)C)C(=O)N[C@@H](C)C(=O)N(C)[C@@H](C)C(=O)N[C@@H]([C@@H](C)O)C(=O)N(C)CC(=O)N1C (stereo partly drawn) [DP-61] ([NMeβAla][ξL][NMeF][NMeL][NMeV]A[NMeA]T[Sar][NMeI][NMeF]D-Piperidide; lactam N-12)	19	47		
CC[C@H](C)[C@H]1C(=O)NCC(=O)N[C@H](C(=O)N2CCCCC2)CC(=O)N(C)[C@H](C)C(=O)N[C@@H](Cc2ccccc2)C(=O)N(C)[C@@H](CC(C)C)C(=O)N[C@@H](COC(C)(C)C)C(=O)N[C@@H](Cc2ccccc2)C(=O)N2CCC[C@H]2C(=O)N[C@@H]([C@@H](C)O)C(=O)N[C@@H](CC(C)C)C(=O)N(C)[C@@H](C)C(=O)N1C [DP-62] ([dNMeA]F[NMeL]S(tBu)FPTL[NMeA][NMeI]GD-Piperidide; lactam N-12)	33	22		
CC[C@H](C)[C@H]1C(=O)N(C)[C@@H](C)C(=O)N[C@@H](COC(C)(C)C)C(=O)N(C)[C@@H](CC(C)C)C(=O)N(C)[C@@H](CC(C)C)C(=O)N[C@H](C(=O)N2CCCCC2)CC(=O)N(C)[C@H](C)C(=O)N(C)[C@@H](Cc2ccccc2)C(=O)N[C@@H](C)C(=O)N(C)[C@@H](CC(C)C)C(=O)N[C@@H]([C@@H](C)O)C(=O)N[C@@H](Cc2ccccc2)C(=O)N1C [DP-63] ([dNMeA][NMeF]A[NMeL]TF[NMeI][NMeA]S(tBu)[NMeL][NMeL]D-Piperidide; lactam N-12)			17	58
CC[C@H](C)C1C(=O)N(C)[C@@H](Cc2ccccc2)C(=O)N[C@H](C(=O)N2CCCCC2)CC(=O)N(C)CC(=O)NC(CC(C)C)C(=O)N(C)[C@@H](Cc2ccccc2)C(=O)N(C)[C@@H](CC(C)C)C(=O)N[C@@H](C)C(=O)N(C)[C@@H](C(C)C)C(=O)N(C)[C@@H](C)C(=O)N[C@@H]([C@@H](C)O)C(=O)N(C)CC(=O)N1C (stereo partly drawn) [DP-64] ([Sar][ξL][NMeF][NMeL]A[NMeV][NMeA]T[Sar][NMeξIle][NMeF]D-Piperidide; lactam N-12)	24	25		
CC[C@H](C)[C@H]1C(=O)N(C)[C@@H](CC(C)C)C(=O)N[C@H](C(=O)N2CCCCC2)CC(=O)N[C@H](C)C(=O)N[C@@H]([C@@H](C)O)C(=O)N(C)[C@@H](C)C(=O)N(C)[C@@H](Cc2ccccc2)C(=O)N2CCC[C@H]2C(=O)N[C@@H](C)C(=O)N(C)[C@@H](C(C)C)C(=O)N[C@@H](Cc2ccccc2)C(=O)N1C [DP-65] ([dA]T[NMeA][NMeF]PA[NMeV]F[NMeI][NMeL]D-Piperidide; lactam N-11)	14	97		
